From PMC5222549 (Journal of immunology (Baltimore, Md. : 1950), 2016)
Values belong to the molecule of their own block, whether it stands above or below them.

What was measured:
mCRT(WT) = molecular target: T1, mCRT(WT) (Mus musculus, UniProt P14211); experiment: isothermal titration calorimetry, lipid vesicles titrated into […] protein; format: binding
T1 sequence (P14211 18-416): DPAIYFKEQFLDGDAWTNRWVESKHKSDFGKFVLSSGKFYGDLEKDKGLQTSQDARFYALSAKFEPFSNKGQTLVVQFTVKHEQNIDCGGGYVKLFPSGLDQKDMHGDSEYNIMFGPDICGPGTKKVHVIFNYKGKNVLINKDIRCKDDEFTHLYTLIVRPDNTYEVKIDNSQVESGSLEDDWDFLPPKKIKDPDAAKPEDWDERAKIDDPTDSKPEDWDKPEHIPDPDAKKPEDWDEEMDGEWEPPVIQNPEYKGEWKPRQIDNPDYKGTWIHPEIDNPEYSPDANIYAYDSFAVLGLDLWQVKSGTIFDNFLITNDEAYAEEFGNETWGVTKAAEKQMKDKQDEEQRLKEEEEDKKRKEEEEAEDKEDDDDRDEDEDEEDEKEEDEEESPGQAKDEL

mCRT(ΔP) = molecular target: T2, mCRT(ΔP) (Mus musculus, UniProt P14211, DEL204-300); experiment: as above; format: binding
T2 sequence (P14211 with tags, fused parts or gaps DEL204-300): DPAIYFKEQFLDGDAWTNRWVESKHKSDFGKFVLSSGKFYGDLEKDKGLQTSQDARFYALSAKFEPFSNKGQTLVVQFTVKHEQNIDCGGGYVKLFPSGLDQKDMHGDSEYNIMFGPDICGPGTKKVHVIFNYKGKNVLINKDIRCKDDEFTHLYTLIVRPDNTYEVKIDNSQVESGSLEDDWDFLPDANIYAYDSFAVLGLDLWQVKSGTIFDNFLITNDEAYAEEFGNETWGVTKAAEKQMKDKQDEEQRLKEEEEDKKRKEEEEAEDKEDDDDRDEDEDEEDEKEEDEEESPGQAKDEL

mCRT(1-351) = molecular target: T3, mCRT(1-351) (Mus musculus, UniProt P14211); experiment: as above; format: binding
T3 sequence (P14211 18-368): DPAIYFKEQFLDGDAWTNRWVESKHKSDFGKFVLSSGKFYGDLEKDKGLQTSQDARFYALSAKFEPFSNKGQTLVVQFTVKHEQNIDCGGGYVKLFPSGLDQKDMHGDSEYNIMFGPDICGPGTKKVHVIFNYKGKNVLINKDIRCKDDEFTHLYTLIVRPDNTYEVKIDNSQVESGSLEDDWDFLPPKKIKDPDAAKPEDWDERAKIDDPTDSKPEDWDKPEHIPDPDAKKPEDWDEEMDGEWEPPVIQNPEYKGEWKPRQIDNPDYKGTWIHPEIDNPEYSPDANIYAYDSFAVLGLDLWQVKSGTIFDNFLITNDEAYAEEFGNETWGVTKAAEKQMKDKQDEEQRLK

mCRT(1-351 ΔP) = molecular target: T4, mCRT(1-351 ΔP) (Mus musculus, UniProt P14211, DEL204-300); experiment: as above; format: binding
T4 sequence (P14211 with tags, fused parts or gaps DEL204-300): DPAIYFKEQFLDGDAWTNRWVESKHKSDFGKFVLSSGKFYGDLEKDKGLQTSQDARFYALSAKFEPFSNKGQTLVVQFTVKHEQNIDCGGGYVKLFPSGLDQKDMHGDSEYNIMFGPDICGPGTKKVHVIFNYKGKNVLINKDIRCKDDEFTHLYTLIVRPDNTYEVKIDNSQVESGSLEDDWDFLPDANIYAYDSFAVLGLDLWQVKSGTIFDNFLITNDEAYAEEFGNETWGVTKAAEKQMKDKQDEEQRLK

GB1-mCRT(C) = molecular target: T5, GB1-mCRT(C) (Mus musculus, UniProt P14211); experiment: as above; format: binding
T5 sequence (P14211 357-416): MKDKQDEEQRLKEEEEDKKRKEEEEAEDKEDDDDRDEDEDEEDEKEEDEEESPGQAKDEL

[1] = molecular target: GB1-mCRT(P), the P-domain of murine calreticulin (residues 187-283) fused with the B1 domain of protein G (mouse); experiment: BLI
ERp57 = molecular target: T6, ERp57 (UniProt P30101 25-505); experiment: BLI
T6 sequence (looked up): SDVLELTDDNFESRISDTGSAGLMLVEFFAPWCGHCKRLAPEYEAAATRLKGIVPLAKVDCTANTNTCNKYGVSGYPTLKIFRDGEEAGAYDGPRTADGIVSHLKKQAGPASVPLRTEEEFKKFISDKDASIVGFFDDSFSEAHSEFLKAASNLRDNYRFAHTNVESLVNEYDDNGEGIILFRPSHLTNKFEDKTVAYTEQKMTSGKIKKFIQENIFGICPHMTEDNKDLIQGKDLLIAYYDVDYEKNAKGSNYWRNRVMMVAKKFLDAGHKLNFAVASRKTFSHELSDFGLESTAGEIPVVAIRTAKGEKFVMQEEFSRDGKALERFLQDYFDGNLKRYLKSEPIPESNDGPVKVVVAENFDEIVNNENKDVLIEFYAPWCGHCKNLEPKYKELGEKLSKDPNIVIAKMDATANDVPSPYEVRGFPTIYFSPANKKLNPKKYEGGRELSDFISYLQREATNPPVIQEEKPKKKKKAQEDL

- Kd (mCRT(WT)): 12.1 ± 4.49 µM
- Kd (mCRT(ΔP)): 7.5 ± 5.69 µM
- Kd (mCRT(1-351)): 32 ± 5.54 µM
- Kd (mCRT(1-351 ΔP)): 20.2 ± 4.08 µM
- Kd (GB1-mCRT(C)): 28.2 ± 4.3 µM
Molecule: CCCCCCCC/C=C\CCCCCCCC(=O)O[C@H](COC(=O)CCCCCCCCCCCCCCC)COP(=O)(O)OC[C@H](N)C(=O)O [POPS]

- Kd (mCRT(WT)): 158 ± 37.3 µM
- Kd (mCRT(ΔP)): 92.5 ± 11 µM
- Kd (mCRT(1-351)): 53.4 ± 13.8 µM
- Kd (mCRT(1-351 ΔP)): 42.6 ± 11.5 µM
Molecule: CCCCCCCC/C=C\CCCCCCCC(=O)O[C@H](COC(=O)CCCCCCCCCCCCCCC)COP(=O)([O-])OCC[N+](C)(C)C [POPC]

- Kd [1]: 0.101 µM
Molecule: ERp57 (from UniProt P30101 25-505) (natural protein)

- Kd (ERp57): 0.282 ± 0.038 µM
B1: wild type murine calreticulin, mCRT(WT) (natural protein, mouse, UniProt P14211 18-416, looked up)
chain: T1 sequence (P14211 18-416)
